Tests used:
[1] = target: T1, C-RAF (Homo sapiens, UniProt P04049, Y340E/Y341E); test: In vitro Raf activity determination (Alpha Screen, biotinylated kinase-dead MEK1 substrate), C-Raf; type: biochemical; settings: c-Raf approximately 4 nM; ATP 1 μM; pre-incubation 60 minutes; reaction 1 hour at room temperature
T1 construct: His tag (implied by nickel chromatography) (cleaved yes); StrepII tag (cleaved yes); made in house; host or cells: Sf9 insect cells (baculovirus), CRAF and h14-3-3 zeta co-expressed; MEK1 substrate from E. coli
Procedure, shortened: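 Full-length C-Raf carrying Y340E/Y341E, co-expressed with 14-3-3ζ in Sf9 cells, at approximately 4 nM, with approximately 10 nM biotinylated kinase-dead MEK1 (K97R) and 1 μM ATP, pH 7.5. Compound preincubated 60 min, reaction 1 hour at room temperature. Phospho-MEK read by AlphaScreen; IC50 by non-linear regression.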

[2] = target: T2, b-Raf (V600E) (Homo sapiens, UniProt P15056, V600E); test: In vitro Raf activity determination (Alpha Screen, biotinylated kinase-dead MEK1 substrate), B-Raf; type: biochemical; settings: b-Raf (V600E) approximately 4 pM; ATP 10 μM; pre-incubation 60 minutes; reaction 3 hours at room temperature
T2 construct: made in house
Procedure, shortened: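 Activated b-Raf(V600E) (~4 pM) pre-incubated 60 min with compound and biotinylated kinase-dead (K97R) MEK1 (~10 nM), then reacted 3 h at room temperature with 10 μM ATP in 50 mM Tris pH 7.5, 15 mM MgCl2, 0.01% BSA, 1 mM DTT. Phospho-MEK detected by AlphaScreen; IC50 by non-linear regression.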

T2 sequence (P15056 whole entry V600E): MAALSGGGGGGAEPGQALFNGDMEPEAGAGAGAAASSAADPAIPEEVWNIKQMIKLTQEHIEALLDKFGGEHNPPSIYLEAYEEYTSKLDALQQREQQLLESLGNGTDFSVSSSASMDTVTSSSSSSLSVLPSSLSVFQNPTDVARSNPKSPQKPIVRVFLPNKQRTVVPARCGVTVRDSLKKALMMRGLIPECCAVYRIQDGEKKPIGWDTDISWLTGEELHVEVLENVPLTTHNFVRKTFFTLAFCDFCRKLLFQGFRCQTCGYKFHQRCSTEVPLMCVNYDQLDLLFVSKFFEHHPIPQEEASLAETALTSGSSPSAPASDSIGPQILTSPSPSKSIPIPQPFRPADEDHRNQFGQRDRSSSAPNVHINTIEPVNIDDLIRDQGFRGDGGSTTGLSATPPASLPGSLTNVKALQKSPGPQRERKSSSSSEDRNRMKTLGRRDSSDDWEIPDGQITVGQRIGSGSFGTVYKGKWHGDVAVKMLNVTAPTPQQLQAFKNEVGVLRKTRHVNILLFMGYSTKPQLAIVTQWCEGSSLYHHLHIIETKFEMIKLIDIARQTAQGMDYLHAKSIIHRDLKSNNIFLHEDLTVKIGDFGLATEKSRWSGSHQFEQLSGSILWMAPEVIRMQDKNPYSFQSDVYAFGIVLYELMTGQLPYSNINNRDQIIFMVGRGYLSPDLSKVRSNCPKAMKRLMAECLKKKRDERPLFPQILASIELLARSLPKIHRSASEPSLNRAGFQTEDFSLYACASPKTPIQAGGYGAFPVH
T1 sequence (P04049 whole entry Y340E/Y341E): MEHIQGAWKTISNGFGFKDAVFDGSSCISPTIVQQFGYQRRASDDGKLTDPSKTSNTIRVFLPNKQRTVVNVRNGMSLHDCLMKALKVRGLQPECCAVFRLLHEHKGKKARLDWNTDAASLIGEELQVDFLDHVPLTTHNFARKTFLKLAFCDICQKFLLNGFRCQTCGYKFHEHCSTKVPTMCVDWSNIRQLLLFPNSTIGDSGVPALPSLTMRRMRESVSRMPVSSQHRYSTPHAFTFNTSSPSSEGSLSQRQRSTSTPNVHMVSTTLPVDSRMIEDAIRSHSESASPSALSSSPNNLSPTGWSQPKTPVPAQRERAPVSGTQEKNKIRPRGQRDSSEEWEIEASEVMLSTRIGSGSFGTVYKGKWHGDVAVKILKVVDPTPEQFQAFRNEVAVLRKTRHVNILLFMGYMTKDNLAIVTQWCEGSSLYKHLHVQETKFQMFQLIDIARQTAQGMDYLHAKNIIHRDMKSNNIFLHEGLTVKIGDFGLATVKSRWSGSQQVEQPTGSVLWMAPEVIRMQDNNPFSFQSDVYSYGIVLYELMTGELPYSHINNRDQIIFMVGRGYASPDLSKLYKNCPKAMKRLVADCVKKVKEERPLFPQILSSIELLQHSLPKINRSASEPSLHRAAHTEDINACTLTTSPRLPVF
T1 sequence (P63104 whole entry partner): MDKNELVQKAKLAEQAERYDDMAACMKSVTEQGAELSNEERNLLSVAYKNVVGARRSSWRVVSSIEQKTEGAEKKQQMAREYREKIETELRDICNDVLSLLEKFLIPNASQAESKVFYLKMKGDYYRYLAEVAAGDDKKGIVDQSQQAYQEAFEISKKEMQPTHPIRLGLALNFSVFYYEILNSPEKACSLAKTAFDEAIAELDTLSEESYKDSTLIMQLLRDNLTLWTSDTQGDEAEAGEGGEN

Structure (SMILES) | IC50 [1] [nM] | IC50 [2] [nM]
COCCNc1ncc(-c2cc(NC(=O)c3ccnc(C4(C#N)CC4)c3)cnc2C)cc1C#N [Example 197, N-(5′-cyano-6′-((2-methoxyethyl)amino)-2-methyl-[3,3′-bipyridin]-5-yl)-2-(1-cyanocyclopropyl) isonicotinamide] | 0.818 | 5.23
Cc1ncc(NC(=O)c2ccnc(C(C)(C)C#N)c2)cc1-c1cnc(Oc2ccccn2)c(C#N)c1 [Example 54, N-(5′-cyano-2-methyl-6′-(pyridin-2-yloxy)-[3,3′-bipyridin]-5-yl)-2-(2-cyanopropan-2-yl)isonicotinamide] | 7.88 | 34.7
Cc1ccc(C(=O)Nc2cccc(C(F)(F)F)c2)cc1-c1cnc(N)c(C#N)c1C [Example 11, 3-(6-amino-5-cyano-4-methylpyridin-3-yl)-4-methyl-N-(3-(trifluoromethyl)phenyl)benzamide] | 0.606 | 9.79
CNc1ncc(-c2cc(NC(=O)c3cccc(C(F)(F)F)c3)cnc2C)cc1C#N [Example 8, N-(5′-cyano-2-methyl-6′-(methylamino)-[3,3′-bipyridin]-5-yl)-3-(trifluoromethyl) benzamide] | 0.25 | 1.98
Cc1ccc(NC(=O)c2ccnc(C(C)(C)C#N)c2)cc1-c1cc(C#N)cnc1N [Example 12, N-(3-(2-amino-5-cyanopyridin-3-yl)-4-methylphenyl)-2-(2-cyanopropan-2-yl)isonicotinamide] | 1.81 | 27.8
Cc1ccc(NC(=O)c2ccnc(S(C)(=O)=O)c2)cc1-c1cnc(N2CC(C)(O)C2)c(C#N)c1 [Example 217, N-(3-(5-cyano-6-(3-hydroxy-3-methylazetidin-1-yl)pyridin-3-yl)-4-methylphenyl)-2-(methylsulfonyl) isonicotinamide] | 1.07 | 6.78
Cc1ccc(NC(=O)c2ccnc(S(C)(=O)=O)c2)cc1-c1cnc(N2CCNCC2)c(C#N)c1 [Example 152, N-(3-(5-cyano-6-(piperazin-1-yl)pyridin-3-yl)-4-methylphenyl)-2-(methylsulfonyl) isonicotinamide] | 0.702 | 5.68
Cc1ccc(NC(=O)c2cccc(C(F)(F)F)c2)cc1-c1cnc(Cl)c(C#N)c1 [Example 33, N-(3-(6-chloro-5-cyanopyridin-3-yl)-4-methylphenyl)-3-(trifluoromethyl)benzamide] | 0.432 | 3.4
CCCNc1ncc(-c2cc(NC(=O)c3cccc(C(F)(F)F)c3)ccc2C)cc1C#N [Example 39, N-(3-(5-cyano-6-(propylamino)pyridin-3-yl)-4-methylphenyl)-3-(trifluoromethyl) benzamide] | 0.429 | 4.02
Cc1ncc(NC(=O)c2ccnc(C(C)(C)C#N)c2)cc1-c1cnc(-c2ccncc2)c(C#N)c1 [Example 107] | 2.16 | 9.07
Cc1ncc(NC(=O)c2cccc(S(C)(=O)=O)c2)cc1-c1cnc(N2CC(C)(O)C2)c(C#N)c1 [Example 187, N-(5′-cyano-6′-(3-hydroxy-3-methylazetidin-1-yl)-2-methyl-[3,3′-bipyridin]-5-yl)-3-(methylsulfonyl) benzamide] | 4.2 | 26.6
Cc1ccc(NC(=O)c2cccc(S(C)(=O)=O)c2)cc1-c1cnc(C2CCOCC2)c(C#N)c1 [Example 139, N-(3-(5-cyano-6-(tetrahydro-2H-pyran-4-yl)pyridin-3-yl)-4-methylphenyl)-3-(methylsulfonyl) benzamide] | 0.377 | 2.4
CNc1ncc(-c2cc(NC(=O)c3ccnc(C(C)(C)C#N)c3)ccc2C)cc1C#N [Example 6, N-(3-(5-cyano-6-(methylamino)pyridin-3-yl)-4-methylphenyl)-2-(2-cyanopropan-2-yl)isonicotinamide] | 0.379 | 2.18
Cc1ccc(NC(=O)c2cc(C(C)(C)F)ccn2)cc1-c1cnc(N2CC(C)(O)C2)c(C#N)c1 [Example 244, N-(3-(5-cyano-6-(3-hydroxy-3-methylazetidin-1-yl)pyridin-3-yl)-4-methylphenyl)-4-(2-fluoropropan-2-yl)picolinamide] | 0.876 | 7.18
Cc1ncc(NC(=O)c2ccnc(C(C)(C)C#N)c2)cc1-c1cnc(-c2ccn(C)n2)c(C#N)c1 [Example 109, N-(5′-cyano-2-methyl-6′-(1-methyl-1H-pyrazol-3-yl)-[3,3′-bipyridin]-5-yl)-2-(2-cyanopropan-2-yl)isonicotinamide] | 2.74 | 20
Cc1ccc(NC(=O)c2cc(C3CC3)nn2C)cc1-c1cnc(N(C)C)c(C#N)c1 [Example 255, N-(3-(5-cyano-6-(dimethylamino)pyridin-3-yl)-4-methylphenyl)-3-cyclopropyl-1-methyl-1H-pyrazole-5-carboxamide] | 4.84 | 35.6
COCCNc1ncc(-c2cc(NC(=O)c3ccnc(C(C)(C)C#N)c3)cnc2C)cc1C#N [Example 198, N-(5′-cyano-6′-((2-methoxyethyl)amino)-2-methyl-[3,3′-bipyridin]-5-yl)-2-(2-cyanopropan-2-yl)isonicotinamide] | 4.06 | 13.4
Cc1ccc(NC(=O)c2ccnc(C(F)(F)F)c2)cc1-c1cnc(C(C)C)c(C#N)c1 [Example 121, N-(3-(5-cyano-6-isopropylpyridin-3-yl)-4-methylphenyl)-2-(trifluoromethyl) isonicotinamide] | 0.307 | 0.871

Second part, the molecule after the results:

IC50 [1] [nM] | IC50 [2] [nM] | Structure (SMILES)
0.223 | 0.902 | Cc1ncc(NC(=O)c2ccnc(C(F)(F)F)c2)cc1-c1cnc(N2CCOCC2)c(C#N)c1 [Example 68, N-(5′-cyano-2-methyl-6′-morpholino-[3,3′-bipyridin]-5-yl)-2-(trifluoromethyl) isonicotinamide]
1.31 | 8.46 | Cc1ncc(NC(=O)c2ccnc(C(F)(F)F)c2)cc1-c1cnc(N2CC(C)(O)C2)c(C#N)c1 [Example 180, N-(5′-cyano-6′-(3-hydroxy-3-methylazetidin-1-yl)-2-methyl-[3,3′-bipyridin]-5-yl)-2-(trifluoromethyl) isonicotinamide]
6.86 | 33 | Cc1ncc(NC(=O)c2ccnc(C(C)(C)O)c2)cc1-c1cnc(C2CCOCC2)c(C#N)c1 [Example 167, N-(5′-cyano-2-methyl-6′-(tetrahydro-2H-pyran-4-yl)-[3,3′-bipyridin]-5-yl)-2-(2-hydroxypropan-2-yl)isonicotinamide]
0.279 | 1.5 | Cc1ccc(NC(=O)c2cc(C(C)(F)F)ccn2)cc1-c1cnc(N2CCOCC2)c(C#N)c1 [Example 241, N-(3-(5-cyano-6-morpholinopyridin-3-yl)-4-methylphenyl)-4-(1,1-difluoroethyl) picolinamide]
0.711 | 6.38 | Cc1ncc(NC(=O)c2cc(C(C)(F)F)ccn2)cc1-c1cnc(N2CC(C)(O)C2)c(C#N)c1 [Example 239]
1.01 | 3.62 | Cc1ncc(NC(=O)c2ccnc(C(C)(C)C#N)c2)cc1-c1cnc(N2[C@@H]3CC[C@H]2COC3)c(C#N)c1 [Example 91, N-(6′-((1R,5S)-3-oxa-8-azabicyclo[3.2.1]octan-8-yl)-5′-cyano-2-methyl-[3,3′-bipyridin]-5-yl)-2-(2-cyanopropan-2-yl)isonicotinamide]
0.533 | 3.24 | Cc1ccc(NC(=O)c2cc(C(C)(C)F)ccn2)cc1-c1cnc(N2CCOCC2)c(C#N)c1 [Example 245, N-(3-(5-cyano-6-morpholinopyridin-3-yl)-4-methylphenyl)-4-(2-fluoropropan-2-yl)picolinamide]
1.51 | 4.34 | Cc1ncc(NC(=O)c2ccnc(C(C)(C)C#N)c2)cc1-c1cnc(N2CCOC[C@H]2C)c(C#N)c1 [Example 79, (R)-N-(5′-cyano-2-methyl-6′-(3-methylmorpholino)-[3,3′-bipyridin]-5-yl)-2-(2-cyanopropan-2-yl)isonicotinamide]
2.41 | 10.3 | Cc1ncc(NC(=O)c2ccnc(C(C)(C)C#N)c2)cc1-c1cnc(NC2CCOC2)c(C#N)c1 (stereo in doubt) [Example 78b, (R)-N-(5′-cyano-2-methyl-6′-((tetrahydrofuran-3-yl)amino)-[3,3′-bipyridin]-5-yl)-2-(2-cyanopropan-2-yl)isonicotinamide]
0.879 | 4.83 | Cc1ncc(NC(=O)c2ccnc(C(C)C)c2)cc1-c1cnc(C2CCOCC2)c(C#N)c1 [Example 130, N-(5′-cyano-2-methyl-6′-(tetrahydro-2H-pyran-4-yl)-[3,3′-bipyridin]-5-yl)-2-isopropyl-isonicotinamide]
1.15 | 3.02 | Cc1ncc(NC(=O)c2ccnc(C(C)(C)C#N)c2)cc1-c1cnc(N2CCOC[C@@H]2C)c(C#N)c1 [Example 87, (S)-N-(5′-cyano-2-methyl-6′-(3-methylmorpholino)-[3,3′-bipyridin]-5-yl)-2-(2-cyanopropan-2-yl)isonicotinamide]
0.153 | 0.577 | Cc1ccc(NC(=O)c2ccnc(C(C)(F)F)c2)cc1-c1cnc(N2CCNCC2)c(C#N)c1 [Example 161, N-(3-(5-cyano-6-(piperazin-1-yl)pyridin-3-yl)-4-methylphenyl)-2-(1,1-difluoroethyl) isonicotinamide]
